{"source": "patent US6204067A", "about": "“Methods of identifying modulators of the estrogen receptor” (Board of Trustees Operating Michigan State University, priority 1999, dated 2001)", "key": {"[1]": {"system": "recycling endosomes of MCF-7/ADR cells", "assay": "In vitro acidification of recycling endosomes (FITC-transferrin)", "assay_type": "biochemical", "description": "Acidification from the recycling endosomal fraction was monitored by first incubating cells with FITC-transferrin for 30 minutes before lysis and isolation of microsomes. Acidification was monitored by excitation of the FITC fluorophore at 450 and 488 nm and measuring λem =520 nm as described previously.\nTo specifically examine the acidification of the endosomes in vitro, in vitro acidification was assayed using FITC-transferrin which is constrained by the transferrin receptor to the endocytic pathway. MCF-7/ADR cells were incubated with FITC-transferrin before lysis and isolation of microsomes. Since this assay is not based on the redistribution of probes, it further serves as verification that AO quenching resulted from vesicular acidification. Upon addition of ATP, there was a decrease in the ratio of the FITC-emission (FIG. 1C). This signal was the consequence of acidification, since it was reversed upon the addition of nigericin."}, "[2]": {"description": "The lumenal pH (pHL) of liposomes was assayed with pyranine, a fluorescent dye with a pKa~7.3 and a λex =405 nm in its acid form (-3 charge) and a λex =455 nm in its basic form (-4 charge). To prepare pyranine loaded liposomes, lipids (2 mg POPC, 1 mg cholesterol) supplied in chloroform suspension were dried in a round bottom flask under argon for 2 hours. The lipids were then resuspended in acidic or alkaline liposome buffer (300 mM KCl, 20 mM MES, 20 mM MOPS, 20 mM Tricine titrated with KOH to either pH 6.2 or pH 8.1) containing 0.5 mM pyranine. The suspension was incubated at room temperature overnight, then freeze-thawed 6×. Unilamellar liposomies were prepared by extrusion 3× through 2 stacked 100 nm Nucleopore (Corning/Costar Scientific, Acton, Mass.) polycarbonate filters in an Avestin (Vancouver, BC) extruder at 600 PSI.\nThe pyranine fluorescence was calibrated as a function of pH by diluting the liposomes with pH 6.2 into a weakly buffered solution of identical pH (300 mM KCl, 1 mM MES, 1 mM MOPS, 1 mM Tricine, pH 6.2), 1 μM nigericin to allow rapid equilibration with external pH and 5 mM DPX to quench external pyranine. The ratio of the fluorescence emission at λem =510 nm was monitored with dual excitation wavelengths of λex =405 nm and λex =455 nm. Sequential aliquots of 0.1 mM glycylglycine, pH 8.4 were added to increase pH (See FIG. 5). The fluorescence was measured after each addition and the pH was measured using a pH meter. […] The cahiration curve for the liposomes of lumenal pH 8.1 was generated identically except sequential aliquots of 0.1 mM K-MES pH 5.0 were added for titration and the curve was generated between pH 8.1 and pH 6.4.\nTo measure the rate of pH dissipation of liposomes with lumenal pH=6.2, the liposomes were diluted in weakly buffered solution of identical pH as described above, but with no nigericin. […] The external pH was shifted to pH 7.3 by addition of 5 mM glycylglycine pH 8.4 and the fluorescence ratio monitored. After 10 minutes, 1 μM nigericin was added to dissipate the remaining pH gradient. The pHL was calculated using the equation pH=x*log(λex =405 nm/[…])+c, were x and c are constants from the least square fit of the titration curve. To measure the rate of pH dissipation of liposomes with pHL =8.1, the identical procedure was followed except 5 mM K-MES pH 5.0 was added to shift the external pH to 6.9.\nLiposomes were loaded with pyranine, a hydrophilic, non-permeable fluorescent pH indicator to assay proton permeability. […] Two steps were taken to ensure that only pHL was measured and to permit the discrimination between dissipation of pH gradient and the lysis or dye leakage from liposomes."}, "[3]": {"system": "E. coli inverted membrane vesicles", "assay": "Acidification of E. coli inverted membrane vesicles (acridine orange)", "assay_type": "biochemical", "conditions": "0.63 μM, 2 μM, 10 μM; similar dose dependence as mammalian and yeast vesicles", "description": "InV were prepared from the DH5α strain as described [Simon and Blobel, Cell 69:677-684 (1992)]. Acidification was measured using AO as described above.\nUnlike mammalian or yeast vesicles, InV utilize the F0 F1 -ATPase for acidification and are composed of different types of lipids, including an abundance of cardiolipin and a lack of sterols."}, "yeast vacuoles [4]": {"system": "yeast vacuoles", "assay": "Acidification of yeast vacuoles (acridine orange)", "assay_type": "biochemical, S. cerevisiae", "description": "Vacuoles from S. cerevisiae were prepared from the protease deficient strain BJ2407 (Yeast Genetic Stock Center, University of California, Berkeley) by sequential floatation through 12% and 8% Ficoll 400 cushion as described previously [Roberts et al., Methods Enzymol, 194:644-661 (1991)] with the single modification that 1× protease inhibitor mix and 1 mM DTT was included in each step. […] Acidification was measured using AO as described above. For acidification in chloride-free solution, gluconate or glutamate was used in vesicle buffer instead of chloride.\nATP (1.5 mM) was added at 50 sec to initiate acidification and at 400 sec nigericin (1 μM) was added to dissipate pH gradients."}, "[5]": {"assay": "Liposome chloride concentration (lucigenin)"}, "yeast vacuoles [6]": {"system": "yeast vacuoles", "assay": "Vm of yeast vacuoles (Oxonol V)", "assay_type": "biochemical, S. cerevisiae", "conditions": "10 μM, KCl or K-gluconate buffer, 2.5 mM ATP", "quoted_text": "Oxonol V is a membrane permeable anionic fluorescent probe that accumulates into the inner leaflet of vesicles with positive Vm, resulting in quenching of fluorescence. Vacuoles were suspended in chloride or gluconate vesicle buffer with 1 μM Oxonol V. Fluorescence was measured with a λex =600 nm and λem =630 nm. After fluorescence has equilibrated, vacuoles were added and the fluorescence is allowed to re-equilibrate. Then, 1 mM Tris-ATP was added and the resulting positive Vm was manifested in fluorescence quenching.\nThe fluorescent dye Oxonal V was used to monitor Vm.\nThe Vm was monitored in either KCl or K-gluconate buffer (FIG. 3A)."}}, "note": "“Also recorded” adds a separate entry of the source."}
{"compound": "CC/C(=C(\\c1ccccc1)c1ccc(OCCN(C)C)cc1)c1ccccc1", "note": "[tamoxifen]", "values": [{"measurement": "effect on ATP-dependent acidification of recycling endosomes", "setting": "[1]; 2.5 μM added after ATP", "value": "partially reversed the acidification"}, {"measurement": "effect on ATP-dependent acidification of recycling endosomes", "setting": "[1]; concentration raised an additional 2.5 μM", "value": "farher reduced"}, {"measurement": "effect of addition on pHL without pre-existing pH gradient", "setting": "[2]; pHL 6.2 = external pH, tamoxifen 2 μM, 8 μM, NH4Cl 5 mM", "value": "alkalinization of liposomes, followed by more rapid pH equilibration"}, {"measurement": "effect on pH equilibration with chloride included", "setting": "[2]; pHL 8.1, 300 mM K-glutamate plus 90 mM KCl, external pH shifted to 6.9", "value": "more rapid pH equilibration"}, {"measurement": "effect on dissipation of pH in the absence of chloride", "setting": "[2]; pHL 8.1, 300 mM K-glutamate, external pH shifted to 6.9", "value": "no effect on the dissipation of pH"}, {"measurement": "rate of pH gradient dissipation, alkaline lumen", "setting": "[2]; pHL 8.1, external pH shifted to 6.9, tamoxifen 0.5-8 μM, NH4Cl 5 mM, FCCP 1 μM, valinomycin 1 μM", "value": "dissipated more quickly with increasing concentrations; also recorded: faster than saturating concentration of FCCP"}, {"measurement": "effect on ATP-dependent acidification of InV", "setting": "[3]", "value": "inhibited acidification"}, {"measurement": "effect of addition to pre-acidified vacuoles", "setting": "yeast vacuoles [4]; added at 250 sec, tamoxifen 2 μM, ammonium 1 mM", "value": "rapid alkaline step followed by slower alkalinization"}, {"measurement": "concentration giving complete inhibition of acidification", "setting": "yeast vacuoles [4]; pre-equilibrated, 1.5 mM ATP, KCl buffer", "value": 8, "unit": "µM"}, {"measurement": "inhibition of vacuole acidification", "setting": "yeast vacuoles [4]; pre-equilibrated, tamoxifen 2 μM or 8 μM, ammonium chloride 1 mM", "value": "dose dependent inhibition of acidification"}, {"measurement": "rate of chloride influx in the presence of valinomycin", "setting": "[5]; 4 μM tamoxifen with 1 μM valinomycin, 50 mM KCl", "value": "increased the rate of chloride influx"}, {"measurement": "rate of chloride influx into liposomes", "setting": "[5]; after addition of 50 mM KCl, tamoxifen 2, 4, 8 μM, valinomycin 1 μM", "value": "dose dependent increase in the rate of chloride influx"}, {"measurement": "effect on Vm generated by the vATPase", "setting": "yeast vacuoles [6]", "value": "significantly decreased the Vm"}]}
